Source: US20260183350A1, “ANTIBIOTIC-RESISTANT BACTERIA” (priority 2022, published 2026)

Tests used:
[1] = test system: faecal microbiota; experiment: Faecal batch culture with antibiotics promoting CRE colonisation: 16S rRNA gene sequencing and qPCR; type: cell-based, human; conditions: 11 healthy donors, antibiotic at faecal concentration, 24 hours anaerobic
Experimental: (§1) The inventors performed faecal culture experiments to measure the effects of eight broad-spectrum antibiotics on the faecal microbiota collected from 11 healthy human donors. Faecal culture experiments were performed under anaerobic conditions using a complex gut growth medium that was designed to mimic the nutrients found in the human distal gut (McDonald, J. A. et al. Evaluation of microbial community reproducibility, stability and composition in a human distal gut chemostat model. J. Microbiol. Methods 95, 167-174 (2013)). […] Moon, Y. S., Chung, K. C. & Gill, M. A. Pharmacokinetics of meropenem in animals, healthy volunteers, and patients. Clin Infect Dis 24, S249-S255 (1997). Kager, L., Brismar, B., Malmborg, A. S. & Nord, C. E. Imipenem concentrations in colorectal surgery and impact on the colonic microflora. Antimicrob Agents Chemother 33, 204-8 (1989). Pletz, M. et al. Ertapenem pharmacokinetics and impact on intestinal microflora, in comparison to those of ceftriaxone, after multiple dosing in male and female volunteers. Antimicrob Agents Chemother 48, 3765-72 (2004). Nord, C. E., Brismar, B., Kasholm-Tengve, B. & Tunevall, G. Effect of piperacillin/tazobactam treatment on human bowel microflora. J Antimicrob Chemother 31, 61-5 (1993). […] Antimicrob Agents Chemother 63, 2244 (2019). Pessôa de Menezes e Silva, C H. Elaboration and evaluation of a new screening medium for detection and presumptive identification of extended-spectrum beta-lactamase-producing organisms (ESBL). Braz J Microbiol 31, 271-274 (2000). Brismar, B., Edlund, C., Malmborg, A. S. & Nord, C. […] Antimicrob Agents Chemother 34, 481-3 (1990)). Cultures were incubated anaerobically at 37° C. for 24 hours. Samples were analysed by ^1H-NMR spectroscopy (for nutrient and metabolite profiling) and […] rRNA gene sequencing with 16S rRNA gene qPCR (for bacterial composition and biomass) (McDonald, J. A. K. et a/. Inhibiting Growth of Clostridioides difficile by Restoring Valerate, Produced by the Intestinal Microbiota. Gastroenterology 155, 1495-1507 (2018)).

[2] = test system: faecal microbiota; experiment: Faecal batch culture with antibiotics promoting CRE colonisation: 1H-NMR of nutrients and metabolites; type: cell-based, human; conditions: 11 healthy donors, antibiotic at faecal concentration, 24 hours anaerobic
Experimental: as §1
Supernatants were prepared from faeces by vortexing 300 mg of faeces in 900 μl of HPLC-grade water for 10 minutes at 3000 rpm followed by centrifugation at 17,000×g for 10 minutes at 4° C. Supernatants were prepared from faecal culture samples by centrifugation at 17,000×g for 10 minutes at 4° C. Supernatants were frozen at −80° C. until they were ready for analysis.
^1H-NMR spectroscopy was performed as previously described (McDonald, J. A. K. et al. Inhibiting Growth of Clostridioides difficile by Restoring Valerate, Produced by the Intestinal Microbiota. Gastroenterology 155, 1495-1507 (2018)). Briefly, sample supernatants were randomized and defrosted at room temperature for 1 hour. Sample supernatants were then centrifuged for 10 min at 17 000×g and 4° C. The pellet was discarded and 400 μl of supernatant was added to 250 μl NMR buffer (28.85 g Na2HPO4, 5.25 g NaH2PO4, 1 mM TSP, 3 mM NaN3, deuterium oxide to 1 L, pH 7.4). 600 μl of sample was used to fill each 5 mm NMR tube to be loaded into the SampleJet system.
^1H-NMR spectroscopy was performed using the Bruker AVANCE III HD 800 MHz spectrometer (Bruker Bio-Spin, Rheinstetten, Germany). 1D spectra (a standard NOESYGPPR1D pulse sequence (RD-90°-t1-90°-tm-90°-ACQ)) as well as 2D spectra (standard 2D JRESGPPRQF pulse sequence) were acquired. A recycle delay of 4 seconds and mixing time of 100 ms was used. The 90° pulse length was approximately 10 μs and 32 scans were recorded.
NMR spectra were imported into MATLAB r2019b (The Mathworks, USA) using an in-house script. Spectra were aligned and the water (4.6-5 ppm) and TSP (−0.2-0.2 ppm) peaks were cut. Compounds were identified by comparison to spectral databases in Chenomx NMR Suite (Chenomx, Canada). Representative peaks were integrated for quantification of compounds.

| Molecule | Change in abundance of bacterial families relative to antibiotic-naive faecal cultures [1] | Change in butyrate concentration in faecal cultures [2] |
| --- | --- | --- |
| CC(C)(O/N=C(\C(=O)N[C@@H]1C(=O)N2C(C(=O)[O-])=C(C[n+]3ccccc3)CS[C@H]12)c1csc(N)n1)C(=O)O [CAZ, ceftazidime] | decreased the abundance of Bifidobacteriaceae | increased |
| CO/N=C(\C(=O)N[C@@H]1C(=O)N2C(C(=O)O)=C(CSc3nc(=O)c(=O)[nH]n3C)CS[C@H]12)c1csc(N)n1 [CRO, ceftriaxone] | decreased the abundance of Bifidobacteriaceae | decreased |
| CO/N=C(\C(=O)N[C@@H]1C(=O)N2C(C(=O)O)=C(COC(C)=O)CS[C@H]12)c1csc(N)n1 [CTX, cefotaxime] | decreased the abundance of Bifidobacteriaceae | increased |
| piperacillin/tazobactam [TZP] | decreased the abundance of Bifidobacteriaceae and Bacteroidaceae | decreased |
